Experimental data taken from ChEMBL document CHEMBL1201862, “PubChem BioAssay data set” (2004).
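48-hour exposure; five concentrations; linearly interpolated endpoints. Abbreviation: GI50, concentration required for 50% inhibition of growth.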 Active and inactive are the calls of the source. No stated cut-off is given here; in the data, active = GI50 up to about 1.1 µM and inactive = higher.

Tests used:
Test in all cases: inhibition of tumour cell growth, NCI panel, 48 h
A498 = test system: A498
CAKI-1 = test system: CAKI-1
EKVX = test system: EKVX
HOP-62 = test system: HOP-62
HT-29 = test system: HT-29
IGROV-1 = test system: IGROV-1
K562 = test system: K562
LOX IMVI = test system: LOX IMVI
MOLT-4 = test system: MOLT-4
NCI-H23 = test system: NCI-H23
OVCAR-5 = test system: OVCAR-5
OVCAR-8 = test system: OVCAR-8
SF-268 = test system: SF-268
SF-295 = test system: SF-295
SF-539 = test system: SF-539
SK-MEL-28 = test system: SK-MEL-28
SR = test system: SR
UACC-257 = test system: UACC-257
UACC-62 = test system: UACC-62
UO-31 = test system: UO-31

| Compound | GI50 (A498) | GI50 (CAKI-1) | GI50 (EKVX) | GI50 (HOP-62) | GI50 (HT-29) | GI50 (IGROV-1) | GI50 (K562) | GI50 (LOX IMVI) | GI50 (MOLT-4) | GI50 (NCI-H23) | GI50 (OVCAR-5) | GI50 (OVCAR-8) | GI50 (SF-268) | GI50 (SF-295) | GI50 (SF-539) | GI50 (SK-MEL-28) | GI50 (SR) | GI50 (UACC-257) | GI50 (UACC-62) | GI50 (UO-31) |
| --- | --- | --- | --- | --- | --- | --- | --- | --- | --- | --- | --- | --- | --- | --- | --- | --- | --- | --- | --- | --- |
| CC1=C(C(=O)Nc2ccc(Cl)c(Cl)c2)C(c2ccc([N+](=O)[O-])cc2)C(C(=O)Nc2ccc(Cl)c(Cl)c2)=C(C)N1 | 3.32 µM (inactive) | 2.54 µM (inactive) | 3.13 µM (inactive) | 2.54 µM (inactive) | 2.42 µM (inactive) | 3.2 µM (inactive) | 1.07 µM (active) | 2.06 µM (inactive) | 0.223 µM (active) | 2.21 µM (inactive) | 3.23 µM (inactive) | 2.13 µM (inactive) | 3.38 µM (inactive) | 2.7 µM (inactive) | 3.13 µM (inactive) | 2.44 µM (inactive) | 0.179 µM (active) | 2.51 µM (inactive) | 1.7 µM (inactive) | 2.69 µM (inactive) |
| CCOC(=O)CNC(=O)C(C)NC(=O)C(NC(=O)CC(c1ncc[nH]1)c1ncc[nH]1)C(C)CC (stereo unspecified) | > 100 µM (inactive) | > 100 µM (inactive) | > 100 µM (inactive) |  |  | > 100 µM (inactive) | > 100 µM (inactive) | > 100 µM (inactive) | > 100 µM (inactive) | > 100 µM (inactive) | > 100 µM (inactive) | > 100 µM (inactive) | > 100 µM (inactive) | > 100 µM (inactive) | > 100 µM (inactive) | > 100 µM (inactive) | > 100 µM (inactive) | > 100 µM (inactive) | > 100 µM (inactive) | > 100 µM (inactive) |
| O=c1c2c3c(sc2nc2n1N=C(c1ccc([N+](=O)[O-])cc1)CS2)CCCC3 | > 100 µM (inactive) | > 100 µM (inactive) | > 100 µM (inactive) | > 100 µM (inactive) | > 100 µM (inactive) | > 100 µM (inactive) | > 100 µM (inactive) | > 100 µM (inactive) | > 100 µM (inactive) | > 100 µM (inactive) | > 100 µM (inactive) | > 100 µM (inactive) | > 100 µM (inactive) | > 100 µM (inactive) | > 100 µM (inactive) | > 100 µM (inactive) | > 100 µM (inactive) | > 100 µM (inactive) | > 100 µM (inactive) | > 100 µM (inactive) |
| COc1ccc(/C=C2/SC(c3c(O)ccc4ccccc34)N(NC(=O)CCCCCCCCC(=O)NN3C(=O)/C(=C\c4ccc(OC)c(OC)c4)SC3c3c(O)ccc4ccccc34)C2=O)cc1OC (stereo unspecified) | 7.6 µM (inactive) | 1.22 µM (inactive) | 2.12 µM (inactive) | 0.65 µM (active) | 3.65 µM (inactive) | 0.481 µM (active) | 1.2 µM (inactive) | 0.394 µM (active) | 0.176 µM (active) | 2.22 µM (inactive) | 21.5 µM (inactive) | 0.553 µM (active) | 0.418 µM (active) | 1.39 µM (inactive) | 1.01 µM (active) | 2.98 µM (inactive) | 0.0962 µM (active) | 2.37 µM (inactive) | 1.56 µM (inactive) | 0.486 µM (active) |
| C=CCSc1nnc2cc(CN3CCCC3)c(-c3ccc(Cl)cc3)nn12 | 15.9 µM (inactive) | 26.5 µM (inactive) | 19 µM (inactive) | 20.7 µM (inactive) | 15 µM (inactive) | 20.7 µM (inactive) | 34.7 µM (inactive) | 20.4 µM (inactive) | 26 µM (inactive) | 23.7 µM (inactive) | 18.3 µM (inactive) | 23.3 µM (inactive) | 20.8 µM (inactive) | 22.2 µM (inactive) | 18.6 µM (inactive) | 20 µM (inactive) | 32.6 µM (inactive) | 17.5 µM (inactive) | 14.4 µM (inactive) | 16 µM (inactive) |
| COC(=O)C1Cc2cc3c(cc2C1)CCC3 | > 100 µM (inactive) | > 100 µM (inactive) | > 100 µM (inactive) | > 100 µM (inactive) | 68.9 µM (inactive) | > 100 µM (inactive) | > 100 µM (inactive) | > 100 µM (inactive) | > 100 µM (inactive) | > 100 µM (inactive) | > 100 µM (inactive) | > 100 µM (inactive) | > 100 µM (inactive) | > 100 µM (inactive) | > 100 µM (inactive) | > 100 µM (inactive) | > 100 µM (inactive) | > 100 µM (inactive) | > 100 µM (inactive) | > 100 µM (inactive) |
| COc1cc(C=O)cc(/C=N/c2ccc(Br)cc2)c1O | 16.4 µM (inactive) | 2.93 µM (inactive) | 13.6 µM (inactive) | 11.7 µM (inactive) | 17.7 µM (inactive) | 40.3 µM (inactive) | 0.555 µM (active) | 0.16 µM (active) | 22 µM (inactive) | 17.7 µM (inactive) | 24.5 µM (inactive) | 2.86 µM (inactive) | 1.66 µM (inactive) | 2.52 µM (inactive) | 2.38 µM (inactive) | 6.71 µM (inactive) | 2.68 µM (inactive) | 5.75 µM (inactive) | 0.347 µM (active) | 3.2 µM (inactive) |
| Cc1cccc(C)c1NC(=O)CCc1nnc2s/c(=C\c3ccc(N(C)C)cc3)c(=O)n12 | > 100 µM (inactive) | > 100 µM (inactive) |  | > 100 µM (inactive) | > 100 µM (inactive) | > 100 µM (inactive) | 53.3 µM (inactive) | > 100 µM (inactive) | 53.3 µM (inactive) | > 100 µM (inactive) | > 100 µM (inactive) | > 100 µM (inactive) | 59.2 µM (inactive) | 56.1 µM (inactive) | > 100 µM (inactive) | > 100 µM (inactive) | > 100 µM (inactive) | > 100 µM (inactive) | > 100 µM (inactive) | > 100 µM (inactive) |
| O=C(CCN1CCN2c3ccccc3CCC2C1)c1ccc(F)cc1 (stereo unspecified) | > 100 µM (inactive) | 23.3 µM (inactive) | 27.5 µM (inactive) | 23.8 µM (inactive) | 18.8 µM (inactive) | 22.4 µM (inactive) | 30.2 µM (inactive) | 30.1 µM (inactive) | 57.3 µM (inactive) | 36.1 µM (inactive) | 23.1 µM (inactive) | 41.5 µM (inactive) | 46.9 µM (inactive) | > 100 µM (inactive) | 20.8 µM (inactive) | 14.7 µM (inactive) | 28.4 µM (inactive) | 34.7 µM (inactive) | 31 µM (inactive) | 17.6 µM (inactive) |
| O=S(=O)(Nc1ccccc1)c1ccc(-c2c3nc(c(-c4ccc(S(=O)(=O)Nc5ccccc5)cc4)c4ccc([nH]4)c(-c4ccc(S(=O)(=O)Nc5ccccc5)cc4)c4nc(c(-c5ccc(S(=O)(=O)Nc6ccccc6)cc5)c5ccc2[nH]5)C=C4)C=C3)cc1 | > 31.6 µM (inactive) | > 31.6 µM (inactive) | > 31.6 µM (inactive) | > 10 µM (inactive) | > 31.6 µM (inactive) | > 93.3 µM (inactive) | > 31.6 µM (inactive) | > 10 µM (inactive) | > 31.6 µM (inactive) | > 31.6 µM (inactive) | > 31.6 µM (inactive) | > 31.6 µM (inactive) | > 31.6 µM (inactive) | 22.9 µM (inactive) | > 31.6 µM (inactive) | > 10 µM (inactive) | > 31.6 µM (inactive) | 26.4 µM (inactive) | > 31.6 µM (inactive) | > 31.6 µM (inactive) |
| C/C(=N\NC(=O)c1ccncc1)c1ccc2ccccc2c1O | 11.2 µM (inactive) | 2.25 µM (inactive) | 0.832 µM (active) | 4.37 µM (inactive) | 0.498 µM (active) | 2.29 µM (inactive) | 1.84 µM (inactive) | 1.04 µM (active) | 0.513 µM (active) | 3.82 µM (inactive) | 6.12 µM (inactive) | 2.18 µM (inactive) | 0.802 µM (active) | 1.77 µM (inactive) | 1.46 µM (inactive) | 17.2 µM (inactive) | 0.303 µM (active) | 2.71 µM (inactive) | 2.19 µM (inactive) | 0.838 µM (active) |
| O=C1CC2C(=O)N(Cc3ccccc3)C1C(S(=O)(=O)c1ccccc1)C2S(=O)(=O)c1ccccc1 (stereo unspecified) | 18.3 µM (inactive) | 0.604 µM (active) |  | 22.1 µM (inactive) | 2.17 µM (inactive) | 20.9 µM (inactive) | 2.09 µM (inactive) | 1.68 µM (inactive) | 2.55 µM (inactive) | 3.25 µM (inactive) | 18 µM (inactive) | 1.94 µM (inactive) | 3.44 µM (inactive) | 22.6 µM (inactive) | 2.05 µM (inactive) | 1.9 µM (inactive) | 2.48 µM (inactive) | 1.61 µM (inactive) | 1.84 µM (inactive) | 10.7 µM (inactive) |
| [O-][S+]1c2ccccc2N=C(c2ccc(Cl)cc2)CC1c1cccs1 (stereo unspecified) | 97.1 µM (inactive) | 21.4 µM (inactive) | 35.4 µM (inactive) | 79.3 µM (inactive) | 17.3 µM (inactive) | 14.8 µM (inactive) | 9.25 µM (inactive) | 12.6 µM (inactive) | 26 µM (inactive) | 23.8 µM (inactive) | 16.7 µM (inactive) | 17.8 µM (inactive) | 29.2 µM (inactive) | 16.6 µM (inactive) | 16.7 µM (inactive) | 19.3 µM (inactive) | 7.01 µM (inactive) | 23.2 µM (inactive) | 15.7 µM (inactive) | 17.7 µM (inactive) |
| Nc1ccc(C2NC(=O)Cc3c2ccc2ccccc32)cc1 (stereo unspecified) | > 100 µM (inactive) | 79.4 µM (inactive) | 84.7 µM (inactive) | 56.2 µM (inactive) | > 100 µM (inactive) | > 100 µM (inactive) | > 100 µM (inactive) | > 100 µM (inactive) | > 100 µM (inactive) | > 100 µM (inactive) | > 100 µM (inactive) | 56.1 µM (inactive) | 89.5 µM (inactive) | 45.5 µM (inactive) | 90.6 µM (inactive) | > 100 µM (inactive) | > 100 µM (inactive) | > 100 µM (inactive) | 66.1 µM (inactive) | 32.1 µM (inactive) |
